Assay results: patent publication US7067521B2, “1-[alkyl], 1-[(heteroaryl)alkyl] and 1-[(aryl)alkyl]-7pyridinyl-imidazo[1,2-alpha]pyrimidin-5(1H)-one derivatives” (sanofi-aventis, priority 2000, dated 2006)
Structures can show the parent of a compound that is named as a salt.

| Compound | melting point [°C] |
| --- | --- |
| O=c1cc(-c2ccncc2)nc2n(CCCCc3ccccc3)ccn12 (as salt: hydrochloride) [Compound 14, 1-[4-(phenyl)butyl]-7-pyridin-4-ylimidazo[1,2-a]pyrimidin-5(1H)-one] | 206 to 208 |
| O=c1cc(-c2cccnc2)nc2n(CCCc3ccccc3)ccn12 (as salt: hydrochloride) [Compound 15, 1-[3-(phenyl)propyl]-7-pyridin-3-ylimidazo[1,2-a]pyrimidin-5(1H)-one] | 184 to 185 |
| O=C(CCn1ccn2c(=O)cc(-c3ccncc3)nc12)c1ccccc1 (as salt: hydrochloride) [Compound 23, 1-(3-phenyl-3-oxo-propyl)-7-pyridin-4-ylimidazo[1,2-a]pyrimidin-5(1H)-one] | 208 to 211 |
| O=c1cc(-c2ccncc2)nc2n(CC[C@H](O)C(F)(F)F)ccn12 [Compound 17, (S)-1-(4,4,4-trifluoro-3-hydroxybutyl)-7-pyridin-4-ylimidazo[1,2-a]pyrimidin-5(1H)-one] | 220 to 222 |
| O=c1cc(-c2ccncc2)nc2n(CC=CC(F)(F)F)ccn12 [Compound 18, 1-(4,4,4-trifluorobut-2-enyl)-7-pyridin-4-ylimidazo[1,2-a]pyrimidin-5(1H)-one] | 187 to 188 |
| O=c1cc(-c2ccncc2)nc2n(C=CCC(F)(F)F)ccn12 [Compound 20, 1-(4,4,4-trifluorobut-1-enyl)-7-pyridin-4-ylimidazo[1,2-a]pyrimidin-5(1H)-one] | 221 to 222 |
